Measured values published in patent publication US8999967B2, “Tricyclic fused ring inhibitors of hepatitis C” (Presidio Pharmaceuticals, Inc., priority 2010, dated 2015).

Test system: HCV 1b_Huh-Luc/Neo-ET cell line (genotype 1b replicon in Huh 7 cells)
Assay: HCV replicon assay (luciferase readout)
Type: cell-based
Settings: Hepatitis C virus, HCV 1b replicon in Huh 7 cells, 72 h incubation, EC50 range class, read-out: Inhibition of HCV genotype 1b
Method: Biological activity of the compounds of the invention was determined using an HCV replicon assay. The HCV 1b_Huh-Luc/Neo-ET cell line persistently expressing a bicistronic genotype 1b replicon in Huh 7 cells was obtained from ReBLikon GMBH. This cell line was used to test compound inhibition using luciferase enzyme activity readout as a measurement of compound inhibition of replicon levels.
On Day 1 (the day after plating cells), each compound is added in triplicate to the cells. Plates are incubated for 72 h prior to determining luciferase levels. Enzyme activity was measured using a Bright-Glo Kit (cat. number E2620) manufactured by Promega Corporation. The following equation was used to generate a percent control value for each compound. % Control=(Compound Luciferase Level/Control Luciferase Level)*100
The EC50 value was determined using GraphPad Prism and the following equation: Y=Bottom asymptote+(Top asymptote-Bottom asymptote)/(1+10^((Log EC50−X)*HillSlope))
EC50 values of compounds are determined several times in the replicon assay to generate average EC50 values. […]

SMILES | EC50
COC(=O)N[C@H](C(=O)N1CCC[C@H]1c1ncc(-c2ccc3c(c2)Cc2ccc(-c4cnc([C@@H]5CCCN5C(=O)[C@@H](NC(=O)OC)[C@@H](C)OC)[nH]4)cc2O3)[nH]1)[C@@H](C)OC [Compound 30] | < 1 nM
CC[C@H](C)[C@H](NC(=O)OC)C(=O)N1CCC[C@H]1c1ncc(-c2ccc3c(c2)Cc2ccc(-c4cnc([C@@H]5CCCN5C(=O)[C@@H](NC(=O)OC)[C@@H](C)CC)[nH]4)cc2O3)[nH]1 [Compound 31] | < 1 nM
COC(=O)N[C@H](C(=O)N1CCC[C@H]1c1ncc(-c2ccc3c(c2)Cc2ccc(-c4cnc([C@@H]5CCCN5C(=O)[C@@H](NC(=O)OC)C5CCCC5)[nH]4)cc2O3)[nH]1)C1CCCC1 [Compound 32] | < 1 nM
COC(=O)N[C@H](C(=O)N1CCC[C@H]1c1ncc(-c2ccc3c(c2)Oc2ccc(-c4cnc([C@@H]5CCCN5C(=O)[C@@H](NC(=O)OC)C5CCCC5)[nH]4)cc2O3)[nH]1)C1CCCC1 [Compound 33] | < 1 nM
COC(=O)N[C@H](C(=O)N1CCC[C@H]1c1ncc(-c2ccc3c(c2)Oc2ccc(-c4cnc([C@@H]5CCCN5C(=O)[C@@H](NC(=O)OC)[C@@H](C)OC)[nH]4)cc2O3)[nH]1)[C@@H](C)OC [Compound 34] | < 1 nM
COC(=O)N[C@H](C(=O)N1CCC[C@H]1c1ncc(-c2ccc3c(c2)Oc2ccc(-c4cnc([C@@H]5CCCN5C(=O)[C@@H](NC(=O)OC)C5CCOCC5)[nH]4)cc2O3)[nH]1)C1CCOCC1 [Compound 35] | < 1 nM
COC(=O)N[C@H](C(=O)N1CSC[C@H]1c1ncc(-c2ccc3c(c2)Oc2ccc(-c4cnc([C@@H]5CSCN5C(=O)[C@@H](NC(=O)OC)C(C)C)[nH]4)cc2O3)[nH]1)C(C)C [Compound 36] | < 1 nM
COC(=O)N[C@@H](C(=O)N1CSC[C@H]1c1ncc(-c2ccc3c(c2)Oc2ccc(-c4cnc([C@@H]5CSCN5C(=O)[C@H](NC(=O)OC)c5ccccc5)[nH]4)cc2O3)[nH]1)c1ccccc1 [Compound 37] | < 1 nM
COC(=O)N[C@@H](C(=O)N[C@@H](C)c1ncc(-c2ccc3c(c2)Oc2ccc(-c4cnc([C@H](C)NC(=O)[C@H](NC(=O)OC)c5ccccc5)[nH]4)cc2O3)[nH]1)c1ccccc1 [Compound 38] | < 1 nM
COC(=O)N[C@H](C(=O)N[C@@H](C)c1ncc(-c2ccc3c(c2)Oc2ccc(-c4cnc([C@H](C)NC(=O)[C@@H](NC(=O)OC)C(C)C)[nH]4)cc2O3)[nH]1)C(C)C [Compound 39] | < 1 nM
COC(=O)N[C@H](C(=O)N1CCC[C@H]1c1ncc(-c2ccc3c(c2)Cc2cc(F)c(-c4cnc([C@@H]5CCCN5C(=O)[C@@H](NC(=O)OC)[C@@H](C)OC)[nH]4)cc2O3)[nH]1)[C@@H](C)OC [Compound 40] | < 1 nM
CC[C@H](C)[C@H](NC(=O)OC)C(=O)N1CCC[C@H]1c1ncc(-c2ccc3c(c2)Cc2cc(F)c(-c4cnc([C@@H]5CCCN5C(=O)[C@@H](NC(=O)OC)[C@@H](C)OC)[nH]4)cc2O3)[nH]1 [Compound 41] | < 1 nM
COC(=O)N[C@H](C(=O)N1CCC[C@H]1c1ncc(-c2ccc3c(c2)Cc2cc(F)c(-c4cnc([C@@H]5CCCN5C(=O)[C@@H](NC(=O)OC)[C@@H](C)OC)[nH]4)cc2O3)[nH]1)C1CCOCC1 [Compound 42] | < 1 nM
COC[C@H](NC(=O)OC)C(=O)N1CCC[C@H]1c1ncc(-c2ccc3c(c2)Cc2cc(F)c(-c4cnc([C@@H]5CCCN5C(=O)[C@@H](NC(=O)OC)[C@@H](C)OC)[nH]4)cc2O3)[nH]1 [Compound 43] | < 1 nM
COC(=O)N[C@H](C(=O)N1CCC[C@H]1c1ncc(-c2cc3c(cc2F)Cc2cc(-c4cnc([C@@H]5CCCN5C(=O)[C@@H](NC(=O)OC)C5CCOCC5)[nH]4)ccc2O3)[nH]1)C(C)C [Compound 44] | < 1 nM
COC[C@H](NC(=O)OC)C(=O)N1CCC[C@H]1c1ncc(-c2ccc3c(c2)Cc2cc(F)c(-c4cnc([C@@H]5CCCN5C(=O)[C@@H](NC(=O)OC)C(C)C)[nH]4)cc2O3)[nH]1 [Compound 45] | < 1 nM
CC[C@H](C)[C@H](NC(=O)OC)C(=O)N1CCC[C@H]1c1ncc(-c2ccc3c(c2)Oc2ccc(-c4cnc([C@@H]5CCCN5C(=O)[C@@H](NC(=O)OC)[C@@H](C)CC)[nH]4)cc2O3)[nH]1 [Compound 46] | < 1 nM
COC(=O)N[C@H](C(=O)N1CCCC[C@H]1c1ncc(-c2ccc3c(c2)Oc2ccc(-c4cnc([C@@H]5CCCCN5C(=O)[C@@H](NC(=O)OC)C(C)C)[nH]4)cc2O3)[nH]1)C(C)C [Compound 47] | < 1 nM
COC(=O)N[C@@H](C(=O)N1CCCC[C@H]1c1ncc(-c2ccc3c(c2)Oc2ccc(-c4cnc([C@@H]5CCCCN5C(=O)[C@H](NC(=O)OC)c5ccccc5)[nH]4)cc2O3)[nH]1)c1ccccc1 [Compound 48] | < 1 nM

SMILES | EC50
COC(=O)N[C@H](C(=O)N1CCC[C@H]1c1ncc(-c2ccc3oc4cc(-c5cnc([C@@H]6CCCN6C(=O)[C@@H](NC(=O)OC)C(C)C)[nH]5)c(Cl)cc4c(=O)c3c2)[nH]1)C(C)C [Compound 49] | < 1 nM
COC(=O)N[C@H](C(=O)N1CCC[C@H]1c1ncc(-c2ccc3oc4cc(-c5cnc([C@@H]6CCCN6C(=O)[C@@H](NC(=O)OC)[C@@H](C)OC)[nH]5)c(Cl)cc4c(=O)c3c2)[nH]1)[C@@H](C)OC [Compound 50] | < 1 nM
CC[C@H](C)[C@H](NC(=O)OC)C(=O)N1CCC[C@H]1c1ncc(-c2ccc3oc4cc(-c5cnc([C@@H]6CCCN6C(=O)[C@@H](NC(=O)OC)[C@@H](C)CC)[nH]5)c(Cl)cc4c(=O)c3c2)[nH]1 [Compound 51] | < 1 nM
COC(=O)N[C@H](C(=O)N1CCC[C@H]1c1ncc(-c2ccc3oc4cc(-c5cnc([C@@H]6CCCN6C(=O)[C@@H](NC(=O)OC)C6CCOCC6)[nH]5)c(Cl)cc4c(=O)c3c2)[nH]1)C1CCOCC1 [Compound 52] | < 1 nM
CC[C@H](C)[C@H](NC(=O)OC)C(=O)N1CCC[C@H]1c1ncc(-c2ccc3c(c2)Cc2cc(F)c(-c4cnc([C@@H]5CCCN5C(=O)[C@@H](NC(=O)OC)[C@@H](C)CC)[nH]4)cc2O3)[nH]1 [Compound 53] | < 1 nM
C=CC[C@H](NC(=O)OC)C(=O)N1CCC[C@H]1c1ncc(-c2ccc3c(c2)Oc2ccc(-c4cnc([C@@H]5CCCN5C(=O)[C@H](CC=C)NC(=O)OC)[nH]4)cc2O3)[nH]1 [Compound 55] | < 1 nM
C#CC[C@H](NC(=O)OC)C(=O)N1CCC[C@H]1c1ncc(-c2ccc3c(c2)Oc2ccc(-c4cnc([C@@H]5CCCN5C(=O)[C@H](CC#C)NC(=O)OC)[nH]4)cc2O3)[nH]1 [Compound 56] | < 1 nM
[2H]C([2H])([2H])C([2H])(C([2H])([2H])[2H])[C@]([2H])(NC(=O)OC)C(=O)N1CCC[C@H]1c1ncc(-c2ccc3c(c2)Oc2ccc(-c4cnc([C@@H]5CCCN5C(=O)[C@@]([2H])(NC(=O)OC)C([2H])(C([2H])([2H])[2H])C([2H])([2H])[2H])[nH]4)cc2O3)[nH]1 [Compound 57] | < 1 nM
COC(=O)N[C@@H](C(=O)N1CCC[C@H]1c1ncc(-c2ccc3oc4cc(-c5cnc([C@@H]6CCCN6C(=O)[C@H](NC(=O)OC)c6ccccc6)[nH]5)c(Cl)cc4c(=O)c3c2)[nH]1)c1ccccc1 [Compound 58] | < 1 nM
CC[C@H](C)[C@H](NC(=O)OC)C(=O)N1CCC[C@H]1c1ncc(-c2cc3c(cc2F)Cc2cc(-c4cnc([C@@H]5CCCN5C(=O)[C@@H](NC(=O)OC)C5CCOCC5)[nH]4)ccc2O3)[nH]1 [Compound 59] | < 1 nM
CC[C@H](C)[C@H](NC(=O)OC)C(=O)N1CCC[C@H]1c1ncc(-c2cc3c(cc2F)Cc2cc(-c4cnc([C@@H]5CCCN5C(=O)[C@H](COC)NC(=O)OC)[nH]4)ccc2O3)[nH]1 [Compound 60] | < 1 nM
COC(=O)N[C@H](C(=O)N1CCC[C@H]1c1ncc(-c2ccc3c(c2)Cc2cc(Cl)c(-c4cnc([C@@H]5CCCN5C(=O)[C@@H](NC(=O)OC)C(C)C)[nH]4)cc2O3)[nH]1)C(C)C [Compound 61] | < 1 nM
COC(=O)N[C@H](C(=O)N1CCC[C@H]1c1ncc(-c2ccc3c(c2)Cc2cc(Cl)c(-c4cnc([C@@H]5CCCN5C(=O)[C@@H](NC(=O)OC)[C@@H](C)OC)[nH]4)cc2O3)[nH]1)[C@@H](C)OC [Compound 62] | < 1 nM
CC[C@H](C)[C@H](NC(=O)OC)C(=O)N1CCC[C@H]1c1ncc(-c2ccc3c(c2)Cc2cc(Cl)c(-c4cnc([C@@H]5CCCN5C(=O)[C@@H](NC(=O)OC)[C@@H](C)CC)[nH]4)cc2O3)[nH]1 [Compound 63] | < 1 nM
COC(=O)N[C@H](C(=O)N1CCOC[C@H]1c1ncc(-c2ccc3c(c2)Oc2ccc(-c4cnc([C@@H]5COCCN5C(=O)[C@@H](NC(=O)OC)C(C)C)[nH]4)cc2O3)[nH]1)C(C)C [Compound 64] | < 1 nM
COC(=O)N[C@@H](C(=O)N1CCOC[C@H]1c1ncc(-c2ccc3c(c2)Oc2ccc(-c4cnc([C@@H]5COCCN5C(=O)[C@H](NC(=O)OC)c5ccccc5)[nH]4)cc2O3)[nH]1)c1ccccc1 [Compound 65] | < 1 nM
COC(=O)N[C@H](C(=O)N1CSC[C@H]1c1ncc(-c2ccc3c(c2)Oc2ccc(-c4cnc([C@@H]5CSCN5C(=O)[C@@H](NC(=O)OC)C5CCCC5)[nH]4)cc2O3)[nH]1)C1CCCC1 [Compound 66] | < 1 nM
CC[C@H](C)[C@H](NC(=O)OC)C(=O)N1CSC[C@H]1c1ncc(-c2ccc3c(c2)Oc2ccc(-c4cnc([C@@H]5CSCN5C(=O)[C@@H](NC(=O)OC)[C@@H](C)CC)[nH]4)cc2O3)[nH]1 [Compound 67] | < 1 nM
CC[C@H](C)[C@H](NC(=O)OC)C(=O)N1CCC[C@H]1c1ncc(-c2ccc3c(c2)Oc2ccc(-c4cnc([C@@H]5CCCN5C(=O)[C@@H](NC(=O)OC)[C@@H](C)CC)[nH]4)cc2C3(C)C)[nH]1 [Compound 70] | < 1 nM
